Measurements as given in PMC9386811 (ACS Omega, 2022).

What follows are molecules tested against alpha-glucosidase from Saccharomyces cerevisiae (Baker's yeast) (Saccharomyces cerevisiae, UniProt P53341) (assay: In vitro α-glucosidase inhibitory activity).
Format: biochemical

alpha-glucosidase from Saccharomyces cerevisiae (Baker's yeast), sequence (P53341 whole entry): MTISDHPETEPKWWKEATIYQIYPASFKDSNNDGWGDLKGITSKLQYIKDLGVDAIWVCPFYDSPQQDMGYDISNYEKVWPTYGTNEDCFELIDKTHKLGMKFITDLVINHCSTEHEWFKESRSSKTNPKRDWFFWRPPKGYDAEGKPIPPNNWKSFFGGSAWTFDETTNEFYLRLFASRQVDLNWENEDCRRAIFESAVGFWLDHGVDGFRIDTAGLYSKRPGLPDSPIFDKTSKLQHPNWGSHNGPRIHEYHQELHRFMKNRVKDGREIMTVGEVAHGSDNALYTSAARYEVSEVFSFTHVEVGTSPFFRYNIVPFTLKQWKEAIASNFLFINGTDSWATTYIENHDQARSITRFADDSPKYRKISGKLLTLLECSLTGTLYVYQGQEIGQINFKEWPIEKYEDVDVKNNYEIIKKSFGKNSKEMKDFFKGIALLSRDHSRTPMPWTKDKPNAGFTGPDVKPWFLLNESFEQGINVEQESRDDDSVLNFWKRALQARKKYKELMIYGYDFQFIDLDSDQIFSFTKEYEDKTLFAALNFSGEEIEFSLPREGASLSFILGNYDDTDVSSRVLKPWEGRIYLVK

Row | SMILES | IC50 [µM]
1 | CCCCCCSc1nc2ccccc2n1CC(=O)NN1C(=O)CSC1c1cccs1 (stereo not drawn) [Compound 21, 2-[2-(Hexylthio)-1H-benzo[d]imidazole-1-yl]-N-[4-oxo-2-(thiophen-2-yl)-thiazolidin-3-yl]acetamide] | 54.4 ± 0.65
2 | CCCCCCSc1nc2ccccc2n1CC(=O)NN1C(=O)CSC1c1ccc(F)cc1 (stereo not drawn) [Compound 23, 2-[2-(Hexylthio)-1H-benzo[d]imidazole-1-yl]-N-[2-(4-fluorophenyl)-4-oxothiazolidin-3-yl]acetamide] | 26.38 ± 0.18
3 | CCCCCCSc1nc2ccccc2n1CC(=O)NN1C(=O)CSC1c1ccc(OC)cc1 (stereo not drawn) [Compound 17, 2-[2-(Hexylthio)-1H-benzo[d]imidazole-1-yl]-N-[2-(4-methoxyphenyl)-4-oxothiazolidin-3-yl]acetamide] | 63.68 ± 0.52
4 | CCCCCCSc1nc2ccccc2n1CC(=O)NN1C(=O)CSC1c1ccccc1OC (stereo not drawn) [Compound 15, 2-[2-(Hexylthio)-1H-benzo[d]imidazole-1-yl]-N-[2-(2-methoxyphenyl)-4-oxothiazolidin-3-yl]acetamide] | 89.28 ± 0.52
5 | CCCCCCSc1nc2ccccc2n1CC(=O)NN1C(=O)CSC1c1cccc(OC)c1O (stereo not drawn) [Compound 11, 2-[2-(Hexylthio)-1H-benzo[d]imidazole-1-yl]-N-[-2-(2-hydroxy-3-methoxyphenyl)-4-oxothiazolidin-3-yl]acetamide] | 24.1 ± 0.3
6 | CCCCCCSc1nc2ccccc2n1CC(=O)NN1C(=O)CSC1c1ccc(C)o1 (stereo not drawn) [Compound 19, 2-[2-(Hexylthio)-1H-benzo[d]imidazole-1-yl]-N-[2-(5-methylfuran-2-yl)-4-oxothiazolidin-3-yl]acetamide] | 39.06 ± 0.27
7 | CCCCCCSc1nc2ccccc2n1CC(=O)NN1C(=O)CSC1c1ccc2ccccc2c1 (stereo not drawn) [Compound 22, 2-[2-(Hexylthio)-1H-benzo[d]imidazole-1-yl]-N-[2-(naphthalen-2-yl)-4-oxothiazolidin-3-yl]acetamide] | 41 ± 0.36
8 | CCCCCCSc1nc2ccccc2n1CC(=O)NN1C(=O)CSC1c1ccc(Cl)cc1Cl (stereo not drawn) [Compound 12, 2-[2-(Hexylthio)-1H-benzo[d]imidazole-1-yl]-N-[2-(2,4-dichlorophenyl)-4-oxothiazolidin-3-yl]acetamide] | 33.4 ± 0.38

The remaining lines, values ahead:

Row | IC50 [µM] | SMILES
9 | 23.7 ± 0.25 | CCCCCCSc1nc2ccccc2n1CC(=O)NN1C(=O)CSC1c1ccc(C)cc1 (stereo not drawn) [Compound 24, 2-[2-(Hexylthio)-1H-benzo[d]imidazole-1-yl)-N-[4-oxo-2-(p-tolyl)thiazolidin-3-yl]acetamide]
10 | 10.2 ± 0.12 | CCCCCCSc1nc2ccccc2n1CC(=O)NN1C(=O)CSC1c1ccc(O)c(OC)c1 (stereo not drawn) [Compound 14, 2-[2-(Hexylthio)-1H-benzo[d]imidazole-1-yl]-N-[2-(4-hydroxy-3-methoxyphenyl)-4-oxothiazolidin-3-yl]acetamide]
11 | 5.22 ± 0.14 | CCCCCCSc1nc2ccccc2n1CC(=O)NN1C(=O)CSC1c1ccc([N+](=O)[O-])cc1 (stereo not drawn) [Compound 5, 2-[2-(Hexylthio)-1H-benzo[d]imidazole-1-yl]-N-[2-(4-nitrophenyl)-4-oxothiazolidin-3-yl]acetamide]
12 | 5.69 ± 0.1 | CCCCCCSc1nc2ccccc2n1CC(=O)NN1C(=O)CSC1c1ccc(C=O)cc1 (stereo not drawn) [Compound 8, 2-[2-(Hexylthio)-1H-benzo[d]imidazole-1-yl]-N-[2-(4-formylphenyl)-4-oxothiazolidin-3-yl]acetamide]
